Reference: US7129250B2, “Neuroprotective and anti-proliferative compounds” (Aegera Therapeutics Inc., priority 2000, dated 2006)

Tests used:
[1] = test system: SHSY-5Y cells; test: Etoposide Killing of SHSY-5Y; format: cell-based; conditions: etoposide 32 uM, drug 1 μM
Experimental: SHSY-5Y cells were grown in growth media. Cells are placed at 50,000 cells per 96 well. Four days latter the cells were treated with drug for 48 hours prior to etoposide (32 uM) treatment. On day 6 media was changed to that containing etoposide and drug for 4 hours, at which point the media was changed to media containing drug only. Cells are allowed to survive overnight and then assessed for viability with metabolic activity measured (WST-1-Beohringer Mannheime), as shown in TABLE 13.

[2] = test system: CGNs; test: Ceramide Killing of CGNs; format: cell-based, CD1 mice; conditions: ceramide 100 uM
Excerpt: Ceramide is a native […] found in most mammalian and human cells. The upregulation of endogenous ceramide has been linked to caspase 1 (ICE) induced apoptosis (Suzuki, A. et al. Exp. Cel. Res., 1997, 233, 41). In a similar fashion, the addition of ceramide to cultured CGNs results in caspase induced apoptosis, and is therefore considered an effective in vitro model for the various neurodegenerative diseases described above, which are characterized by caspase induced apoptosis, as observed in stroke models. Addition of selected compounds of the formula I through III, 24 hours prior to the addition of ceramide, to cultured CGNs provided protection against apoptosis, with 10 to 20% of the cells being saved at 1–10 μM drug concentrations (see Example 114).
CGNs were harvested from day 8/9 post-natal CD1 mice, plated on Poly-D-Lycine coated plates and incubated for 6 days at 37° C. under 5% CO2. Cells were pretreated with drug 24 hours prior to ceramide (100 uM) and drug addition.

[3] = test system: Cortical neurons; test: Cisplatin Killing of Cortical Neurons; format: cell-based, Sprague-Dawley rats
Experimental: Cortical neurons were harvested from day E18 female Sprague-Dawley rats, plated on Poly-L-Lycine coated plates and incubated for 14 days at 37° C. under 5% CO2. […]

[4] = test system: CGNs; test: β-Amyloid Aggregation Assay in CGNs; format: cell-based; conditions: for IC50: Aβ 25 μM, assayed 5 days after Aβ addition
Excerpt: Various mechanisms have been put forward in order to account for the neurotoxicity related to extracellular Aβ fibril formation. […] Regardless of the mode of action, extracellular Aβ fibril formation acts as an effective apoptotic trigger for neuronal cells and serves as an in vitro model for various neurodegenerative diseases characterized by extracellular protein fibril formation, typified by diseases such as AD and PD.
CGNs were harvested from day 8/9 post-natal CD1 mice, plated on Poly-D-Lycine coated plates and incubated for 6 days at 37° C. under 5% CO2. Pretreated cells were treated with drug 24 hours prior to A-β (25 μM) and drug addition.

[5] = test system: CGNs; test: Glutamate Killing of CGNs; format: cell-based, CD1 mice; conditions: glutamate 100 uM
Excerpt: Glutaminergic neurons secrete the neurotransmitter glutamate as a part of normal cell signaling processes. Intracellular glutamate levels are regulated by glial cell uptake and conversion to glutamine. Under conditions of oxidative stress, as observed in various neurodegenerative diseases such as stroke, ALS, PD, and HD, glutaminergic neurons release massive amounts of glutamate into the […] fluid, overwhelming the surrounding cells. Stimulation of both NMDA and non NMDA-type glutamate excitory receptors leads to sustained depolarization of postsynaptic dendrosomal membranes, increased membrane permeability, and impaired ion homeostasis, all leading to either apoptotic or necrotic cell death.
CGNs were harvested from day 8/9 post-natal CD1 mice, plated on Poly-D-Lycine coated plates and incubated for 6 days at 37° C. under 5% CO2. Cells were pretreated with drug 24 hours prior to glutamate (100 uM) and drug addition.

[6] = test system: CGNs; test: High/Low Potassium (HK/LK) assay in CGNs; format: cell-based; conditions: for IC50: Mus musculus, HK/LK switch, drug 24 h pre-treatment, assayed 16 h after media change, concentration at which cell death was inhibited by 50%
Experimental: Cultured CGNs which are maintained in a medium containing 26 mM potassium (high K^+ or HK) undergo cell death when the medium is changed to one containing 5 mM potassium (low K^+ or LK). HK maintains the cells in a highly polarized state, duplicating that of fully innervated neurons. The switch to LK (5 mM is more representative of physiological conditions) results in depolarization of the cells, mimicking the loss of neuronal conductivity. […] As these killer genes are turned on by various types of neuronal insult as observed in AD, PD, and stroke, HK/LK is a general in vitro model for neuronal degradation, blanketing a wide range of neurodegenerative diseases. Compounds that protect against HK/LK in CGNs would therefore be efficacious in treatment and/or prevention of various neurodegenerative disease states.
CGNs were harvested from day 8/9 post-natal CD1 mice, plated on Poly-D-Lycine coated plates and incubated for 6 days at 37° C., with […] potassium, under 5% CO2. Pretreated cells were treated with drug 24 hours prior to changing the media to one containing […] potassium and drug. Cells were assayed 16 hours after the final media change using cell TITER96 (Promega).

[7] = test system: OV 2008 ovarian cancer cells; test: Cisplatin induced apoptosis of OV 2008 ovarian cancer cells; format: cell-based; conditions: cisplatin (20 μg/mL)
Excerpt: Regardless of its neuroprotective capability, if a compound interferes with chemotherapy by protecting cancer cells from an apoptotic stimuli then the compound is of less value as an anti-cancer therapeutic.

[8] = test system: CGNs; test: Cisplatin Killing of CGNs; format: cell-based, CD1 mice
Experimental: Cisplatin has been used extensively in the treatment of various cancers. One dosblimiting side effect of this chemotherapeutic agent is related to hearing loss as a result of its toxicity to auditory neurons and loss of feeling in the extremities. Cisplatin induces apoptosis to both cultured CGN and cortical neurons.
CGNs were harvested from day 8/9 post-natal CD1 mice, plated on Poly-D-Lycine coated plates and incubated for 6 days at 37° C. under 5% CO2. The cells were treated with media containing drug and cisplatin […].

[9] = test system: SCG neurons; test: NGF Withdrawal Killing of SCG Neurons; format: cell-based, Sprague-Dawley rats; conditions: Rattus norvegicus, Neuron, assayed 48 hours after drug
Excerpt: Cultured Superiour Cervical Ganglion (SCG) neurons of the PNS which have been sustained in media containing Neuron Growth Factor (NGF) undergo apoptotic cell death upon removal of the NGF from the cellular medium. Loss of neuronal trofin support has been implicated in various neurodegenerative disease states in the PNS, such as diabetic neuropathy and neuropahies related to chemotherapeutic and anti-HIV drug treatment.
SCG neurons were harvested from day 1 post natal Sprague-Dawley rats, plated on collagen coated plates and incubated for 5 days in the presence of 50 ng/mL NGF at 37° C. under 5% CO2. The cells were washed with NGF free media, 4 times at 1 hour intervals, at which time drug was added.

[10] = test system: Caspase 3; test: Caspase 3 induction during HK/LK killing of CGNs; format: cell-based, CD1 mice
Excerpt: Caspase 3 induction ultimately leads to cell death and is observed in any number of neurodegenerative diseases. Compounds which inhibit caspase 3 induction represent potent therapies for various neurodegenerative diseases.

[11] = test system: rat spinal cord ex-plants; test: Spinal Cord Explant neurite extension; format: cell-based; conditions: 3 μM; ex-plants on growth inhibitory substrates
Excerpt: The inability of neurites to regenerate or overcome stimuli which inhibit or prevent the formation of normal neuritic extensions and connections is characteristic of the conditions found in spinal cord and related injuries, AD and the like. Select compounds of this invention promote the formation of neuritic extension in spinal cord ex-plants which have been cultured on growth inhibitory substrates.
Spinal cords from P1 rat pups were isolated for neurite extension analysis. Lumbar cord was separated in two along the spinal canal. […] lateral sections were obtained with a McIlwain tissue chopper. Slices were cultured in poly L-lysine coated 24 well plates in Neurobasal media supplemented with B27, penicillin, streptomycin, and glutamate. Test compounds were added to the media and neurite extension out of the explant onto the poly L-coated plastic was assessed after 7 days in culture. Neurites were visualized either by phase contrast microscopy or by beta 3 tubulin immunofluorescence.

CCSCc1ccc2c(c1)c1c3c(c4c5cc(CSCC)ccc5n5c4c1n2[C@H]1C[C@](O)(C(=O)OC)[C@]5(C)O1)CNC3=O [CEP 1347, reference compound]
% SHSY-5Y cell survival [1]: 12.5%
% CGN Survival ([2]; 300 nM, (250 nM in source)): 0 (250 nM) %
% CGN Survival ([2]; drug 1 μM): 1.8%
% Protection ([3]; drug at 0.3 μM, cisplatin): 32%
protection ([4]; concentrations below 300 nM): > 10%
% CGN Survival ([5]; 300 nM, (250 nM in source)): 50.0 (250 nM) %
% CGN Survival ([5]; drug 100 nM): 0%
% CGN Survival ([5]; drug 1 μM): 7.0%
IC50 [6]: 1000 nM
toxicity ([6]; higher doses): toxic at higher doses

O=C1NC(=O)C2=C1c1c(n(CCO)c3ccc(OCc4ccccc4)cc13)C1Cc3ccccc3N21 (stereo not drawn) [Compound 36]
protection of cancer cells from cisplatin induced apoptosis [7]: did not protect
survival ([8]; 300 nM drug, cisplatin): 80%
IC50 ([8]; cisplatin induced apoptosis in CGNs): 100 nM
% Protection at 10 μM ([3]; drug 10 μM 24 h pre-treatment): 9%

O=C1NC(=O)c2c1c1c3ccccc3[nH]c1c1cc3ccccc3n21 [Compound 42]
IC50 ([8]; Mus musculus, assayed 48 hours after final drug treatment): 3000 nM
% CGN Survival ([2]; drug 1 μM): 20.0%
% CGN Survival ([2]; drug 10 μM): 18.0%
IC50 ([4]; Mus musculus, 120 h): 1000 nM
IC50 [9]: 20000 nM
inhibition at 10 µM ([10]; Mus musculus): 50%
IC50 [6]: 3000 nM

O=C1C=C(c2c[nH]c3ccc(OCc4ccccc4)cc23)C(=O)N1 [Compound 64, 3-(1-H-5-benzyloxyindol-3-yl)-1H-pyrrole-2,5-dione]
IC50 ([8]; assayed 48 hours after final drug treatment): 3000 nM
% CGN Survival ([2]; drug 1 μM): 18.0%
% CGN Survival ([2]; drug 10 μM): 5.1%
IC50 [4]: 1000 nM
% CGN Survival ([5]; drug 100 nM): 0%
% CGN Survival ([5]; drug 1 μM): 4.0%
% CGN Survival ([5]; drug 10 μM): 32.5%
inhibition of caspase 3 induction ([10]; 10 μM): 33%

O=C1NCC2=C1N1c3ccccc3CC1c1c2c2ccccc2n1CCCO (stereo not drawn) [Compound 176]
formation of neuritic extensions [11]: induce the formation of neuritic extensions
